Measurements: US20040235920A1, “Novel use of substituted aminomethyl chromans for the treatment of movement disorders and of adverse effects induced by drugs administered to treat extrapyramidal movement disorders” (priority 2001, published 2004)

Columns and labels:
cataleptic rat = assay: Reversal of catalepsy in rats (oral ED50); format: in vivo; settings: rats; for ED50: Rattus norvegicus, read-out: oral ED50 value (calculated dose to reverse catalepsy by 50%); for ED50 / oral ED50 value (calculated dose to reverse catalepsy by 50%): oral
Description: Extrapyramidal motor side effects in e.g. rodents are measured by the ability of a drug to induce catalepsy. Catalepsy is defined as a state where an animal continues to remain in an unnormal (nonphysiological ‘uncomfortable’) posture for a long time (e.g.: M. E. Stanley and S. D. Glick, Neuropharmacology, 1996; 15: 393-394; C. J. E. Niemegeers and P. Janssen, Life Sci., 1979, […]). For example, if a hindpaw of a rat is placed on an elevated level, e.g. a platform elevated 3 cm above ground level, a normal rat immediately withdraws the hindpaw from the platform to the ground level. A cataleptic rat remains in this unnatural posture even for minutes.

[1] = test system: advanced Parkinson patients; settings: cited from earlier work
[2] = test system: patients with cervical dystonia (spasmodic torticollis); assay: Double-blind placebo-controlled study in cervical dystonia (TWSTRS); format: in vivo, human; settings: 2.5 mg to 20 mg b.i.d.
[3] = test system: patients with advanced idiopathic Parkinson's disease complicated by “peak-dose” dyskinesia; assay: Double-blind add-on study in advanced idiopathic Parkinson's disease with peak-dose dyskinesia (diary card); format: in vivo, human; settings: 2.5 to 10 mg b.i.d., typical study
Excerpt: A typical study to investigate the efficacy of the compounds according to the invention for adverse effects in Parkinson's disease is described in the following. 40 patients of either sex with advanced idiopathic Parkinson's disease complicated by “peak-dose” dyskinesia participate in a double-blind study. The main inclusion criteria are Hoehn & Yahr stage≧2.5 (lit.: Hoehn H. M. et al, Neurology 1967; 17: 427-442), aged 40-75 years, symptom duration of at least 5 years, and a l-dopa treatment duration of at least 3 years. (−)-(R)-2-{4-[[3,4-dihydro-2H-benzopyran-2-yl)-methyl]amino]butyl}-1,2-benzoisothiazol-3-(2H)-on-1,1-dioxide monohydrochloride or placebo is administered as “add on” to the conventional Parkinson treatment, which is maintained unchanged during the whole study. The dose of blinded medication is titrated over a period of 3 weeks in a range from 2.5 to 10 mg b.i.d. Then the medication is kept constant for 3 weeks. Before the start of titration and at the end of the treatment period the patients fill a diary card in 30 min. inervalls for 48 hours. The diary card differentiates 5 different states: (1) “on” without dyskinesia, (2) “on” with troublesome dyskinesia, (3) “on” with non-troublesome dyskinesia, (4) “off” time, and (5) time asleep (Hauser RA et al., Clin. Neuropharmacol., 2000, 23, 75-81). The primary outcome variable of the protocol is the change in “on” time with troublesome dyskinesia. […] The other parameters are not changed.

MSA patients = assay: Add-on study in MSA patients (UPDRS); format: in vivo, human; settings: 1 to 20 mg t.i.d., typical study
Description: The study design is similar to that described above for Parkinson's disease. (−)-(R)-2-{4-[[3,4-dihydro-2H-benzopyran-2-yl)-methyl]amino]butyl}-1,2-benzoisothiazol-3-(2H)-on-1,1-dioxide monohydrochloride or placebo is titrated as “add on” to the conventional treatment (dose range 1 to 20 mg t.i.d.). After a double-bllind dose-finding phase of 3 weeks during which the individual dose is identified for each patient on the basis of tolerability and efficacy, the dose is maintained unchanged for 3 additional weeks. Before the start of titration and at the end of the treatment period a complete UPDRS assessment is performed in each patient (primary outcome measure).

[4] = test system: schizophrenic inpatients on long-term antipsychotic treatment; assay: Cross-over add-on study in tardive dyskinesia (AIMS); format: in vivo, human; settings: up to 20 mg t.i.d., vs placebo period, typical study
Excerpt: Tardive dyskinesia is a common adverse effect of long-term treatment with neuroleptics. A typical study to investigate the efficacy of the compounds according to the invention in tardive dyskinesia is described in the following. 32 schizophrenic (DSM-III-R) inpatients aged 25-60 years on long-term stable antipsychotic treatment (duration of at least 5 years) entered the study. (−)-(R)-2-{4-[[3,4-dihydro-2H-benzopyran-2-yl)-methyl]amino]butyl}-1,2-benzoisothiazol-3-(2H)-on-1,1-dioxide monohydrochloride or placebo is administered as “add on” to the antipsychotic treatment, which is kept constant during the whole study. The dose of blinded medication is titrated over a period of 3 weeks in a range from I to 20 mg t.i.d. Then the medication is maintained under double-blind conditions for 2 weeks. After a 2-week wash-out period, the test drugs are crossed over. Assessments of tardive dyskinesia by means of the Abnormal Involuntary Movement Scale (AIMS, see above) and of Parkinsonian extrapyramidal side effects (UPDRS, see above) are made pretreatment and posttreatment.

O=C1CC2(CCCC2)CC(=O)N1CCCCN1CCN(c2ncccn2)CC1 [buspirone]
ED50 (cataleptic rat): 30 mg/kg | anti-dyskinetic properties [1]: moderate anti-dyskinetic properties

O=C1[C@@H]2[C@H]3CC[C@H](C3)[C@@H]2C(=O)N1CCCCN1CCN(c2ncccn2)CC1 [tandosirone]
oral ED50 value (calculated dose to reverse catalepsy by 50%) (cataleptic rat): 60 mg/kg

O=C1c2ccccc2S(=O)(=O)N1CCCCN1CCN(c2ncccn2)CC1 [ipsapirone]
ED50 (cataleptic rat): 23 mg/kg

Cl.O=C1c2ccccc2S(=O)(=O)N1CCCCNC[C@H]1CCc2ccccc2O1 [(−)-(R)-2-{4-[[3,4-dihydro-2H-benzopyran-2-yl)-methyl]amino]butyl}-1,2-benzoisothiazol-3-(2H)-on-1,1-dioxide monohydrochloride]
oral ED50 value (calculated dose to reverse catalepsy by 50%) (cataleptic rat): 0,6 mg/kg | potency in reversing catalepsy compared to other 5-HT1A agonists (cataleptic rat; oral ED50 vs ipsapirone, buspirone, gepirone, tandosirone): 30-100 times | TWSTRS scores [2]: significant improvement | other diary parameters [3]: not changed | “on” time with troublesome dyskinesia [3]: significant reduction | “on” time without dyskinesia [3]: significantly increase | UPDRS (Parkinson symptoms) (MSA patients): significant clinical improvement of Parkinson symptoms | AIMS scores [4]: significantly lower than during placebo period

CC1(C)CC(=O)N(CCCCN2CCN(c3ncccn3)CC2)C(=O)C1 [gepirone]
ED50 (cataleptic rat): 16 mg/kg
